Assay results from PubChem BioAssay AID1259407 (Chemical Carcinogenesis Research Information System (CCRIS), 2018).
Calls of active or inactive are those of the source. No rule for the calls is given here.

System: CCRIS mutagenicity, Ames/micronucleus/aberration tests
Assay: CCRIS mutagenicity studies
[1] = Test System: AMES SALMONELLA TYPHIMURIUM, Strain/Indicator: TA98, Metabolic Activation: NONE, Method: PREINCUBATION
[2] = Test System: AMES SALMONELLA TYPHIMURIUM, Strain/Indicator: TA100, Metabolic Activation: NONE, Method: PREINCUBATION
[3] = Test System: AMES SALMONELLA TYPHIMURIUM, Strain/Indicator: TA100, Metabolic Activation: RAT, LIVER, S-9, AROCLOR 1254, Method: STANDARD PLATE
[4] = Test System: AMES SALMONELLA TYPHIMURIUM, Strain/Indicator: TA98, Metabolic Activation: RAT, LIVER, S-9, PCB, Method: PREINCUBATION
[5] = Test System: AMES SALMONELLA TYPHIMURIUM, Strain/Indicator: TA100, Metabolic Activation: RAT, LIVER, S-9, PCB, Method: PREINCUBATION
[6] = Test System: AMES SALMONELLA TYPHIMURIUM, Strain/Indicator: TA98, Metabolic Activation: NONE, Method: STANDARD PLATE
[7] = Test System: AMES SALMONELLA TYPHIMURIUM, Strain/Indicator: TA98, Metabolic Activation: RAT, LIVER, S-9, AROCLOR 1254, Method: STANDARD PLATE

In the case of `CCC[C@H]1O[C@H]1c1ccccc1`, the mutagenic call (Test System: AMES SALMONELLA TYPHIMURIUM, Strain/Indicator: TA98, Metabolic Activation: NONE, Method: PREINCUBATION (PHOSPHATE-BUFFERED KCL OR SOLUTE-FREE WATER MEDIA)) is reported as “inactive; negative”, the mutagenic call (Test System: AMES SALMONELLA TYPHIMURIUM, Strain/Indicator: TA100, Metabolic Activation: NONE, Method: PREINCUBATION (PHOSPHATE-BUFFERED KCL OR SOLUTE-FREE WATER MEDIA)) is reported as “inactive; negative” and the mutagenic call (Test System: AMES SALMONELLA TYPHIMURIUM, Strain/Indicator: TA104, Metabolic Activation: NONE, Method: PREINCUBATION (PHOSPHATE-BUFFERED KCL OR SOLUTE-FREE WATER MEDIA)) is reported as “inactive; negative”.
In the case of `c1ccc2c3c(ccc2c1)-c1cccc2cccc-3c12`, the mutagenic call (Test System: AMES SALMONELLA TYPHIMURIUM, Strain/Indicator: TA97A, Metabolic Activation: NONE, Method: PREINCUBATION) is reported as “inactive; negative”, the mutagenic call [1] is reported as “inactive; negative” and the mutagenic call [2] is reported as “inactive; negative”. The mutagenic call [3] was “active; positive”.
`N#CCCC(=O)/C=C/c1ccc(C(=O)O)cc1` was tested, and the mutagenic call [1] was “inactive; negative”, the mutagenic call [4] was “inactive; negative” and the mutagenic call [2] was “inactive; negative”. The mutagenic call [5] was “inactive; negative”.
`CN(C)C(=N)N(C)C` was tested, and the mutagenic call [1] was “inactive; negative”, the mutagenic call [4] was “inactive; negative” and the mutagenic call [2] was “inactive; negative”. The mutagenic call [5] was “inactive; negative”.
`CC(=O)Nc1ccc2ccccc2n1` was tested, and the mutagenic call [1] was “inactive; negative”, the mutagenic call (Test System: AMES SALMONELLA TYPHIMURIUM, Strain/Indicator: TA98, Metabolic Activation: RAT, LIVER, S-9, KANECHLOR 500, Method: PREINCUBATION) was “inactive; negative” and the mutagenic call [2] was “inactive; negative”. The mutagenic call (Test System: AMES SALMONELLA TYPHIMURIUM, Strain/Indicator: TA100, Metabolic Activation: RAT, LIVER, S-9, KANECHLOR 500, Method: PREINCUBATION) was “inactive; negative”.
With `O=[N+]([O-])c1cc2c(cc3ccc4cccc5ccc2c3c45)o1` the mutagenic call (Test System: AMES SALMONELLA TYPHIMURIUM, Strain/Indicator: TA98(NR), Metabolic Activation: NONE, Method: STANDARD PLATE) was “active; positive”, the mutagenic call (Test System: AMES SALMONELLA TYPHIMURIUM, Strain/Indicator: TA98(NR), Metabolic Activation: RAT, LIVER, S-9, AROCLOR 1254, Method: STANDARD PLATE) was “active; positive” and the mutagenic call [6] was “active; positive”. The mutagenic call [7] was “active; positive”.
For `OCC(O)CI` (centres undefined), the mutagenic call (Test System: AMES SALMONELLA TYPHIMURIUM, Strain/Indicator: TA98, Metabolic Activation: HAMSTER, LIVER, S-9, AROCLOR 1254 (30%), Method: PREINCUBATION) was “inactive; negative”, the mutagenic call [1] was “inactive; negative” and the mutagenic call (Test System: AMES SALMONELLA TYPHIMURIUM, Strain/Indicator: TA98, Metabolic Activation: RAT, LIVER, S-9, AROCLOR 1254 (30%), Method: PREINCUBATION) was “inactive; negative”. For the same compound, the mutagenic call (Test System: AMES SALMONELLA TYPHIMURIUM, Strain/Indicator: TA100, Metabolic Activation: HAMSTER, LIVER, S-9, AROCLOR 1254 (30%), Method: PREINCUBATION) was “active; positive”, the mutagenic call [2] was “active; positive” and the mutagenic call (Test System: AMES SALMONELLA TYPHIMURIUM, Strain/Indicator: TA100, Metabolic Activation: RAT, LIVER, S-9, AROCLOR 1254 (30%), Method: PREINCUBATION) was “active; positive”.
For `Cc1nc2ccc3c(nc(N)n3C)c2nc1C`, the mutagenic call [7] was “active; positive”.
`C=CCOC(=O)c1ccccc1C(=O)OCC=C` was tested, and the mutagenic call (End Point: IN VITRO CHROMOSOMAL ABERRATIONS, Test System: CHO CELLS, Metabolic Activation: RAT, LIVER, S-9, AROCLOR 1254) was “active; positive; weak response”, the mutagenic call (Test System: AMES SALMONELLA TYPHIMURIUM, Strain/Indicator: TA98, Metabolic Activation: HAMSTER, LIVER, S-9, AROCLOR 1254, Method: PREINCUBATION) was “inactive; negative” and the mutagenic call [1] was “inactive; negative”. For the same compound, the mutagenic call (Test System: AMES SALMONELLA TYPHIMURIUM, Strain/Indicator: TA98, Metabolic Activation: RAT LIVER S-9, PHENOBARBITAL AND BETA-NAPHTHOFLAVONE, Method: PREINCUBATION) was “inactive; negative”, the mutagenic call (Test System: AMES SALMONELLA TYPHIMURIUM, Strain/Indicator: TA98, Metabolic Activation: RAT, LIVER, S-9, AROCLOR 1254, Method: PREINCUBATION) was “inactive; negative” and the mutagenic call (Test System: AMES SALMONELLA TYPHIMURIUM, Strain/Indicator: TA100, Metabolic Activation: HAMSTER, LIVER, S-9, AROCLOR 1254, Method: PREINCUBATION) was “inactive; negative”. For the same compound, the mutagenic call [2] was “inactive; negative”, the mutagenic call (Test System: AMES SALMONELLA TYPHIMURIUM, Strain/Indicator: TA100, Metabolic Activation: RAT LIVER S-9, PHENOBARBITAL AND BETA-NAPHTHOFLAVONE, Method: PREINCUBATION) was “inactive; negative” and the mutagenic call (Test System: AMES SALMONELLA TYPHIMURIUM, Strain/Indicator: TA100, Metabolic Activation: RAT, LIVER, S-9, AROCLOR 1254, Method: PREINCUBATION) was “inactive; negative”. For the same compound, the mutagenic call (Test System: AMES SALMONELLA TYPHIMURIUM, Strain/Indicator: TA1535, Metabolic Activation: HAMSTER, LIVER, S-9, AROCLOR 1254, Method: PREINCUBATION) was “inactive; negative”, the mutagenic call (Test System: AMES SALMONELLA TYPHIMURIUM, Strain/Indicator: TA1535, Metabolic Activation: NONE, Method: PREINCUBATION) was “inactive; negative” and the mutagenic call (Test System: AMES SALMONELLA TYPHIMURIUM, Strain/Indicator: TA1535, Metabolic Activation: RAT LIVER S-9, PHENOBARBITAL AND BETA-NAPHTHOFLAVONE, Method: PREINCUBATION) was “inactive; negative”. For the same compound, the mutagenic call (Test System: AMES SALMONELLA TYPHIMURIUM, Strain/Indicator: TA1535, Metabolic Activation: RAT, LIVER, S-9, AROCLOR 1254, Method: PREINCUBATION) was “inactive; negative”, the mutagenic call (Test System: AMES SALMONELLA TYPHIMURIUM, Strain/Indicator: TA1537, Metabolic Activation: HAMSTER, LIVER, S-9, AROCLOR 1254, Method: PREINCUBATION) was “inactive; negative” and the mutagenic call (Test System: AMES SALMONELLA TYPHIMURIUM, Strain/Indicator: TA1537, Metabolic Activation: NONE, Method: PREINCUBATION) was “inactive; negative”. The mutagenic call (Test System: AMES SALMONELLA TYPHIMURIUM, Strain/Indicator: TA1537, Metabolic Activation: RAT LIVER S-9, PHENOBARBITAL AND BETA-NAPHTHOFLAVONE, Method: PREINCUBATION) was “inactive; negative”, the mutagenic call (Test System: AMES SALMONELLA TYPHIMURIUM, Strain/Indicator: TA1537, Metabolic Activation: RAT, LIVER, S-9, AROCLOR 1254, Method: PREINCUBATION) was “inactive; negative” and the mutagenic call (Test System: E.COLI, Strain/Indicator: WP2UVRA/PKM101, Metabolic Activation: NONE, Method: PREINCUBATION) was “inactive; negative”. For the same compound, the mutagenic call (Test System: E.COLI, Strain/Indicator: WP2UVRA/PKM101, Metabolic Activation: RAT LIVER S-9, PHENOBARBITAL AND BETA-NAPHTHOFLAVONE, Method: PREINCUBATION) was “inactive; negative”.
In the case of `C=C(Br)CCl`, the mutagenic call (Test System: AMES SALMONELLA TYPHIMURIUM, Strain/Indicator: TA100, Metabolic Activation: RAT, LIVER, MICROSOMES, PHENOBARBITAL, NADPH COFACTORS, Method: STANDARD PLATE) is reported as “active; positive” and the mutagenic call (Test System: AMES SALMONELLA TYPHIMURIUM, Strain/Indicator: TA100, Metabolic Activation: RAT, LIVER, MICROSOMES, PHENOBARBITAL, Method: STANDARD PLATE) is reported as “inactive; negative”.
In the case of `COc1ccc(C(=O)n2ncc(Cl)c(Cl)c2=O)cc1`, the mutagenic call [6] is reported as “inactive; negative”, the mutagenic call [7] is reported as “inactive; negative” and the mutagenic call (Test System: AMES SALMONELLA TYPHIMURIUM, Strain/Indicator: TA100, Metabolic Activation: NONE, Method: STANDARD PLATE) is reported as “inactive; negative”. The mutagenic call [3] was “inactive; negative”, the mutagenic call (Test System: AMES SALMONELLA TYPHIMURIUM, Strain/Indicator: TA1535, Metabolic Activation: NONE, Method: STANDARD PLATE) was “inactive; negative” and the mutagenic call (Test System: AMES SALMONELLA TYPHIMURIUM, Strain/Indicator: TA1535, Metabolic Activation: RAT, LIVER, S-9, AROCLOR 1254, Method: STANDARD PLATE) was “inactive; negative”. The mutagenic call (Test System: AMES SALMONELLA TYPHIMURIUM, Strain/Indicator: TA1537, Metabolic Activation: NONE, Method: STANDARD PLATE) was “inactive; negative” and the mutagenic call (Test System: AMES SALMONELLA TYPHIMURIUM, Strain/Indicator: TA1537, Metabolic Activation: RAT, LIVER, S-9, AROCLOR 1254, Method: STANDARD PLATE) was “inactive; negative”.
